The test system of assay [1] is HCV replicon genotype 1a. Briefly: microbe, parasite or virus in culture. In kind it is cell-based. The conditions noted are these: Hepatitis C virus, 96 h, HCV genotype 1a replicon cells, 96 hours incubation, NS3/4A ELISA readout.
Assay [2] deals with HCV replicon genotype 1b. Briefly: microbe, parasite or virus in culture. The conditions noted are these: Hepatitis C virus, 96 h, HCV genotype 1b replicon cells, 96 hours incubation, NS3/4A ELISA readout. The class given is cell-based. In general terms: A replicon is a self-replicating genome or part of one, used to study replication in cells.

Take `CNC(=O)c1c(-c2ccc(F)cc2)oc2cc(N(C)S(C)(=O)=O)c(-c3ccc4ccn(-c5ccncc5)c4c3)cc12` [Compound 51]: the IC50 worked out at 0.0346 µM in assay [1] and 0.0078 µM in assay [2].

For the compound `CNC(=O)c1c(-c2ccc(F)cc2)oc2cc(N(C)S(C)(=O)=O)c(-c3ccc4c(c3)ncn4-c3cccnc3)cc12` [Compound 22], the IC50 was found to be 0.0144 µM in assay [1] and 0.0033 µM in assay [2].

On to `CNC(=O)c1c(-c2ccc(F)cc2)oc2cc(N(C)S(C)(=O)=O)c(-c3ccc4ncn(-c5cccc(OC)c5)c4c3)cc12` [Compound 4], for which the IC50 in assay [1] was 0.0265 µM; in assay [2] it was 0.0025 µM.

Turning to `CNC(=O)c1c(-c2ccc(F)cc2)oc2cc(N(C)S(C)(=O)=O)c(-c3ccc4ccn(-c5ccccc5)c4c3)cc12` [Compound 63], the IC50 was determined as 0.0235 µM in assay [1] and 0.0072 µM in assay [2].

With `CNC(=O)c1c(-c2ccc(F)cc2)oc2cc(N(C)S(C)(=O)=O)c(-c3ccc4ncc(-c5ccc(F)cc5)n4c3)cc12` [Compound 112, 2-(4-fluorophenyl)-5-(3-(4-fluorophenyl)imidazo[1,2-a]pyridin-6-yl)-N-methyl-6-(N-methylmethylsulfonamido)benzofuran-3-carboxamide], the values for the IC50 in assay [1] and in assay [2] were 0.0124 µM and 0.0071 µM, respectively.

`CNC(=O)c1c(-c2ccc(F)cc2)oc2cc(N(C)S(C)(=O)=O)c(-c3ccc4ncn(-c5ccc(F)cc5)c4n3)cc12` [Compound 44]: the IC50 was 0.0565 µM in assay [1] and 0.0077 µM in assay [2].

In the case of `CNC(=O)c1c(-c2ccc(F)cc2)oc2cc(N(C)S(C)(=O)=O)c(-c3ccc4ccn(Cc5ccc(C(F)(F)F)cc5)c4c3)cc12` [Compound 67, 2-(4-fluorophenyl)-N-methyl-6-(N-methylmethylsulfonamido)-5-(1-(4-(trifluoromethyl)benzyl)-1H-indol-6-yl)benzofuran-3-carboxamide], the 50% inhibitory concentration (IC50) turned out to be 0.132 µM in assay [1] and 0.0498 µM in assay [2].

What is called IC50 is the point on the concentration scale where inhibition reaches its midpoint. Read a low IC50 as greater potency.

The values are drawn from patent US20150246902A1, “SUBSTITUED BENZOFURAN COMPOUNDS AND METHODS OF USE THEREOF FOR THE TREATMENT OF VIRAL DISEASES” (priority 2011, published 2015).
